For orientation: IC50 means the midpoint of a concentration-inhibition curve. High values mean weaker potency in that assay, low ones greater potency in that assay.

This is an account of results in US20080221094A1, “Metalloprotease inhibitors containing a squaramide moiety” (priority 2007, published 2008).

This assay addresses T1, MMP-13 (Homo sapiens, UniProt P45452).
T1 construct: 10 μL of a 50 nM stock solution of catalytic domain of MMP-13 enzyme; purchased Invitek (Berlin) 30100812
Nature of the assay: Assay for Determining MMP-13 Inhibition. The settings on record: catalytic domain of MMP-13, fluorescent substrate. In kind it is biochemical. As to the method:
The typical assay for MMP-13 activity is carried out in assay buffer comprised of 50 mM Tris, pH 7.5, 150 mM NaCl, 5 mM CaCl2 and 0.05% Brij-35. Different concentrations of tested compounds are prepared in assay buffer in 50 μL aliquots. 10 μL of a 50 nM stock solution of catalytic domain of MMP-13 enzyme (produced by Alantos or commercially available from Invitek (Berlin), Cat.# 30100812) is added to the compound solution. The mixture of enzyme and compound in assay buffer is thoroughly mixed and incubated for 10 min at room temperature. Upon the completion of incubation, the assay is started by addition of 40 μL of a 12.5 μM stock solution of MMP-13 fluorescent substrate (Calbiochem, Cat. No. 444235). The time-dependent increase in fluorescence is measured at the 320 nm excitation and 390 nm emission by automatic plate multireader. The IC50 values are calculated from the initial reaction rates.

As to `Nc1c(N2CCc3ccc(CNC(=O)c4nc(O)nc5ccccc45)cc3C2)c(=O)c1=O` [Example 1], the IC50 is less than 500 nM. `Nc1c(N2CCc3ccc(CNC(=O)c4cnc5ccccc5n4)cc3C2)c(=O)c1=O` [2/50] registered an IC50 of less than 500 nM.
